Assay results published in paper PMC6656545 (Science Advances, 2019).
Where two headings read alike, the source gives them in different places. Where no end group is shown, it is not given here.

Columns and labels:
[1] = clinical dose, human volunteers; cited from earlier work
[2] = in 4 hours; cited from earlier work
[3] = Single-dose in vivo toxicity, LD50 determination; set-up: species or system mouse; settings: BALB/c, mouse, in vivo, ip
BALB/c mice [4] = experiment: Multidose cumulative toxicity, mouse survival; format: in vivo; settings: repeated maximum sublethal doses
[5] = tested on: panel of 30 type cultures; experiment: I_score ranking from the MICs of 30 type cultures; settings: number of cultures inhibited with the lowest MIC among the five peptides
BALB/c mice [6] = experiment: Single-dose in vivo toxicity, LD50 determination; set-up: species or system mouse
BALB/c mice [7] = experiment: Kidney and liver histopathology after multidose treatment; format: in vivo, mouse; settings: after 11 maximum sublethal doses
A. baumannii (P1270) [8] = experiment: Radiolabeled phosphate leakage radioassay; format: cell-based; settings: in 60 min; Ω76 32 mg/liter, colistin 5 mg/liter
[9] = cited from earlier work
[10] = clinical dose, mouse serum; cited from earlier work
A. baumannii (P1270) [11] = experiment: Time-kill curves in ex vivo whole human blood; settings: in 60 min; Ω76 32 mg/liter, colistin 5 mg/liter
[12] = cited from earlier work; remark: listed apart in the source
[13] = young patient cohort, Walter Reed Army Medical Center

C[C@@H](O)[C@H]1C(=O)N2C(C(=O)O)=C(S[C@@H]3CN[C@H](C(=O)N(C)C)C3)[C@H](C)[C@H]12 [meropenem]
time above MIC concentrations in serum [1]: 5 h
CFU reduction [2]: 100 fold

H-GIGKFLKKAKKFGKAFVKILKK-NH2 [Pexiganan]
LD50 at 5 days [3]: 60 mg/kg
mortality in mice (BALB/c mice [4]): 100%

IKALGKKLRKGKKKIGKKVK [Ω93]
I_score [5]: 1

colistin
LD50 (median lethal dose) (BALB/c mice [6]; intraperitoneal, monitored 5 days, linear interpolation): 30 mg/kg
maximum sublethal dose (BALB/c mice [6]; intraperitoneal, single dose): 16 mg/kg
mortality (mice) (BALB/c mice [6]; single dose of 32 mg/kg): 3 of 5
mortality in mice (BALB/c mice [4]): 50%
kidney histology (BALB/c mice [7]): extensive renal damage
liver histology (BALB/c mice [7]): displaying no damage
intracellular phosphate lost (A. baumannii (P1270) [8]): 25%
acute kidney injury ([9]; Korean elderly patient cohort, treated for ≥72 hours): 54.6%
acute kidney injury ([9]; Turkish elderly patient cohort): 46.1%
acute kidney injury [9, 13]: 45%
cessation of treatment due to nephrotoxicity [9, 13]: 21%
time above MIC concentrations in serum [10]: 100 min
CFU reduction (A. baumannii (P1270) [11]): 32 fold

gramicidin S
hemolytic properties [12]: display hemolytic properties

lactoferrampin
hemolytic properties [12]: display hemolytic properties

melittin
hemolytic properties [12]: display hemolytic properties
